pIC50: −log10 of the molar value. Blank lines part the entries; values can stand above or below the compound they belong to. Activity calls are given as the source filed them. The calls are words filed in the database; no cut-off is given here.
What was measured:
[1] = Inhibition of N-type calcium channel in human IMR-32 cells assessed as intracellular calcium concentration by FLIPR; type: cell-based
hERG (KCNH2) = hERG (KCNH2) (Homo sapiens, UniProt Q12809); assay: Inhibition of human ERG expressed in CHO cells at 10 uM by Rb efflux assay; type: cell-based; conditions: CHO cells expressing human ERG
[2] = target: Voltage-gated inwardly rectifying potassium channel KCNH2 (Homo sapiens, UniProt Q12809); assay: Inhibition of human ERG expressed in CHO cells by Rb efflux assay
[3] = Aqueous solubility in Japanese Pharmacopoeia at pH 1.2; type: physicochemical; conditions: aqueous Japanese Pharmacopoeia medium, pH 1.2, pH 1.2
[4] = Aqueous solubility in Japanese Pharmacopoeia at pH 6.8; type: physicochemical; conditions: aqueous Japanese Pharmacopoeia medium, pH 6.8, pH 6.8
Cytochrome P450 1A2 = target: T1, Cytochrome P450 1A2 (Homo sapiens, UniProt P05177); assay: Inhibition of human recombinant CYP1A2 after 15 mins
T1 sequence (P05177 whole entry): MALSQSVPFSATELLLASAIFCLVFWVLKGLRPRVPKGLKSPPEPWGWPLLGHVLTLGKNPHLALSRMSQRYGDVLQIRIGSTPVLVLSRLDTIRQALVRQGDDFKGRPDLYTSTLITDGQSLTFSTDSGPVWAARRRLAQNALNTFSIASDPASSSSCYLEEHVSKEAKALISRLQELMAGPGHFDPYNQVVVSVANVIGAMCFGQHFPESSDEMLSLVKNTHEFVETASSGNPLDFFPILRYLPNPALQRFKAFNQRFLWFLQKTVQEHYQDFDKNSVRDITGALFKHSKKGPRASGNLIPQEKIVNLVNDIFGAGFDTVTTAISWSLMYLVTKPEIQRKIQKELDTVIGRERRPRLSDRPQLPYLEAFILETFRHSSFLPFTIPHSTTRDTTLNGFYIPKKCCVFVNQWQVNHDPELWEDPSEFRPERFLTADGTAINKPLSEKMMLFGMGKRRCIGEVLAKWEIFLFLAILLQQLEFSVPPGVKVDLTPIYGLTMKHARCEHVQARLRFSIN

Cytochrome P450 2C9 = Cytochrome P450 2C9 (Homo sapiens, UniProt P11712); assay: Inhibition of human recombinant CYP2C9 after 45 mins
Cytochrome P450 2C19 = Cytochrome P450 2C19 (Homo sapiens, UniProt P33261); assay: Inhibition of human recombinant CYP2C19 after 30 mins
Cytochrome P450 2D6 = Cytochrome P450 2D6 (Homo sapiens, UniProt P10635); assay: Inhibition of human recombinant CYP2D6 after 30 mins
CYP3A4 = CYP3A4 (Homo sapiens, UniProt P08684); assay: Inhibition of CYP3A4 in human liver microsomes assessed as residual activity assessed as residual activity using midazolam as substrate preincubated for 30 mins by LC/MS/MS analysis; conditions: probe midazolam
IMR-32 = assay: Selectivity ratio of IC50 for human ERG to IC50 for N-type calcium channel in human IMR-32 cells; type: cell-based
Rattus norvegicus [5] = assay: Antiallodynic activity in Sprague-Dawley rat spinal nerve ligation model of neuropathic pain assessed as reduction in mechanical allodynia at 3 to 30 mg/kg, po; type: functional, organism-based
Rattus norvegicus [6] = assay: Antiallodynic activity in Sprague-Dawley rat spinal nerve ligation model of neuropathic pain assessed as maximal reduction in mechanical allodynia at 30 mg/kg, po; type: functional, organism-based; parameters: dose 30 mg/kg
[7] = Inhibition of N-type calcium channel in human IMR-32 cells under holding potential at -70 mV inactivated state by whole cell patch-clamp electrophysiological method
[8] = Inhibition of N-type calcium channel in human IMR-32 cells under holding potential at -90 mV state-biased condition by whole cell patch-clamp electrophysiological method

Chain of Voltage-gated inwardly rectifying potassium channel KCNH2 (Q12809 whole entry): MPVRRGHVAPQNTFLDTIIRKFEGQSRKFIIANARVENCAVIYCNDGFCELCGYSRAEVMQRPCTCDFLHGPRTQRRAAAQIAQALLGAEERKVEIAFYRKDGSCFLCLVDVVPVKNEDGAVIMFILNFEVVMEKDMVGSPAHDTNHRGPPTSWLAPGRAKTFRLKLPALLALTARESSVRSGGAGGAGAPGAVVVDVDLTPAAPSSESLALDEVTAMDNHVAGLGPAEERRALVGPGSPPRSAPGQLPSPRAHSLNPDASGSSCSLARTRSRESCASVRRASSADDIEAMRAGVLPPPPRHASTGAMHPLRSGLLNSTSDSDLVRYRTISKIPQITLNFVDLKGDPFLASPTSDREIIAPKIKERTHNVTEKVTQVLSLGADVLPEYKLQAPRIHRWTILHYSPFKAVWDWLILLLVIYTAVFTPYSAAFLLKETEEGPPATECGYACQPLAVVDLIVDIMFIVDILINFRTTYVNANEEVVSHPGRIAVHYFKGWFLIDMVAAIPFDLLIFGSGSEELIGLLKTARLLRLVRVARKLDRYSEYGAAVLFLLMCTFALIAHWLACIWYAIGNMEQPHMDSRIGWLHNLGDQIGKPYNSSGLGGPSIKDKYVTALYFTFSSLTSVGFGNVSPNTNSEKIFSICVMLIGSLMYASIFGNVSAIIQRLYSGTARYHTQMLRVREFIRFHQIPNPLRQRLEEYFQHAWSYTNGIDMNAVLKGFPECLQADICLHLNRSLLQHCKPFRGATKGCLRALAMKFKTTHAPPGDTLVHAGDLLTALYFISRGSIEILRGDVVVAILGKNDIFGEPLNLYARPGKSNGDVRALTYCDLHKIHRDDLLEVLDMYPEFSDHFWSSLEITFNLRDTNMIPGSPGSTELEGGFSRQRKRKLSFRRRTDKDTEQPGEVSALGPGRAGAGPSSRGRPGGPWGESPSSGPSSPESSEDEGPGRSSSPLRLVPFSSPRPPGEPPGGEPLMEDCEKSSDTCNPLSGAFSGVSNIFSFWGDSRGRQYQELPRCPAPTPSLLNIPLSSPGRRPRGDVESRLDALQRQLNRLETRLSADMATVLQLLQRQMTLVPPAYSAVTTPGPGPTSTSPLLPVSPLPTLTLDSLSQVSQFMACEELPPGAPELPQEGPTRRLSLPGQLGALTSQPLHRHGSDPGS
Chain of hERG (KCNH2) (Q12809 whole entry): as above
Chain of Cytochrome P450 2C9 (P11712 whole entry): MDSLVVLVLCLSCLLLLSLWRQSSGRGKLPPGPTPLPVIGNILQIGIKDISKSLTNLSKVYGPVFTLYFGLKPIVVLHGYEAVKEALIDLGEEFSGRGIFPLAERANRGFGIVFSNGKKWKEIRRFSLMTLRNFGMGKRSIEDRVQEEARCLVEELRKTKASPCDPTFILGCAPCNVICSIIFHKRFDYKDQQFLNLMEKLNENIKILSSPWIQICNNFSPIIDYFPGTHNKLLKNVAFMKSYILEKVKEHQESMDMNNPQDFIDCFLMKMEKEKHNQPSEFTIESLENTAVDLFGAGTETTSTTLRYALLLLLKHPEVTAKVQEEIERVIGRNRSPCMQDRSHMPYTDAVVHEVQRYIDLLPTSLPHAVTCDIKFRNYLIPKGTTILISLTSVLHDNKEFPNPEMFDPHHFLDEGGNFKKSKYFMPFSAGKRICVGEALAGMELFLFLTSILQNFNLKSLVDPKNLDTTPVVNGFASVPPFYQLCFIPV
Chain of Cytochrome P450 2C19 (P33261 whole entry): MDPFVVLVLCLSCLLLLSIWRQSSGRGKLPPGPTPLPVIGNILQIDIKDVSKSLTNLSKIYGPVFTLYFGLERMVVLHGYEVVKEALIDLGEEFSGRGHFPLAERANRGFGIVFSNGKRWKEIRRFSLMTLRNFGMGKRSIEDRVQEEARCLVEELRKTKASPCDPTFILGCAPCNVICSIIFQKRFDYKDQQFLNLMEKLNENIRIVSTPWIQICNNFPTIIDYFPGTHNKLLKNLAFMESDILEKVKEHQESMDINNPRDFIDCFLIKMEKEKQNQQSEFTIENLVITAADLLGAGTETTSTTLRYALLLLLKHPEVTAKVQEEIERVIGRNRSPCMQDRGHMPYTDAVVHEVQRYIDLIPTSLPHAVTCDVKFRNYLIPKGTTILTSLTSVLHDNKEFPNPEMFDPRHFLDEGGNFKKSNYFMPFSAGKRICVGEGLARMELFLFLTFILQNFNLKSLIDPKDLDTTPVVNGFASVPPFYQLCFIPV
Chain of CYP3A4 (P08684 whole entry): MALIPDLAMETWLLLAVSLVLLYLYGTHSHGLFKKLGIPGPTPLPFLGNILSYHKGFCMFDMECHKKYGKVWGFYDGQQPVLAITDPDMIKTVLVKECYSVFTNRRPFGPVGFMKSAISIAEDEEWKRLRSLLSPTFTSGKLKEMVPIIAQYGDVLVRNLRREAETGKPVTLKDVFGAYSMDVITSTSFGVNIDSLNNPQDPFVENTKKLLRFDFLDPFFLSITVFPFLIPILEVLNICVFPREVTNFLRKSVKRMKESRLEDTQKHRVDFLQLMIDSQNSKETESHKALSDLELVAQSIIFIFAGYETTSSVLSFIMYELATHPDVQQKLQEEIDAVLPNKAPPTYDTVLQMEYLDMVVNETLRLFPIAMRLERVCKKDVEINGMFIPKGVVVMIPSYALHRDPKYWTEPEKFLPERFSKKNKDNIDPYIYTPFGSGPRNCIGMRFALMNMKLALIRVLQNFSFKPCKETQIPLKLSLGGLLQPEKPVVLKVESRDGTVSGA
Chain of Cytochrome P450 2D6 (P10635 whole entry): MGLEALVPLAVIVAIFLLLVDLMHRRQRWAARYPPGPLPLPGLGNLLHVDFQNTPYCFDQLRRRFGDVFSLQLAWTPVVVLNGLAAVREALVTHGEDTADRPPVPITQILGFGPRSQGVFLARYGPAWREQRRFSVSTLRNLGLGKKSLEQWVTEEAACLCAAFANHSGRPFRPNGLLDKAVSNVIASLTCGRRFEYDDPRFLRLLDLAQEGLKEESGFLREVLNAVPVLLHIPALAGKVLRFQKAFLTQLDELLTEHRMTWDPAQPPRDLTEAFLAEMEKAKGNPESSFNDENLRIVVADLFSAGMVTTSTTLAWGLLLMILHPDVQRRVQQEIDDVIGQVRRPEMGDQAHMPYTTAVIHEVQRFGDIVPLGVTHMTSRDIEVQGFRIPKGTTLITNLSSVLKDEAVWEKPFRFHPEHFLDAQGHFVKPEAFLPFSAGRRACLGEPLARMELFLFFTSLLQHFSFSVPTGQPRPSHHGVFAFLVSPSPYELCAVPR

pIC50 [1]: < 5.00
SMILES: O=C(O)c1ccc(CCNCC(=O)N2CCc3ccccc3C2C2CCCCC2)cc1 (stereo unspecified)
inhibition at 10 µM (hERG (KCNH2)): 9%

pIC50 [1]: 6.37
solubility [3]: < 1 µM
solubility [4]: < 1 µM
SMILES: COc1c(OC(C)(C)C)cc(CN2CC(=O)N(CCCCCC(c3ccc(F)cc3)c3ccc(F)cc3)CC2=O)cc1OC(C)(C)C
pIC50 [2]: < 4.00

pIC50 [1]: 6.22
solubility [3]: > 100 µM
solubility [4]: > 100 µM
pIC50 (Cytochrome P450 1A2): 4.59
pIC50 (Cytochrome P450 2C9): 5.32
pIC50 (Cytochrome P450 2C19): 5.52
pIC50 (Cytochrome P450 2D6): 6.43
activity at 30 min (CYP3A4): 53%
SMILES: COc1ccccc1CCNCC(=O)N1CCc2ccccc2C1C1CCCCC1 (stereo unspecified)

pIC50 [1]: 5.55
SMILES: O=C(CNCC1(O)CCCC1)N1CCc2ccccc2C1C1CCCCC1 (stereo unspecified)
pIC50 [2]: 4.10
Ratio IC50 (IMR-32): 28.1

pIC50 [1]: 6.00
pIC50 [7]: 5.77
pIC50 [8]: 4.90
SMILES: O=C(CNCC1(O)CCCCC1)N1CCc2ccccc2[C@@H]1C1CCCCC1
inhibition (Rattus norvegicus [5]): Active
inhibition (Rattus norvegicus [6]): Active

The remaining lines, values behind:

SMILES: O=C(CNCCC1(O)CCCCC1)N1CCc2ccccc2C1C1CCCCC1 (stereo unspecified)
pIC50 [1]: 5.77

SMILES: O=C(CNCCc1ccccc1O)N1CCc2ccccc2C1C1CCCCC1 (stereo unspecified)
pIC50 [1]: 5.52
inhibition at 10 µM (hERG (KCNH2)): 54.4%

SMILES: COC(=O)c1ccc(CCNCC(=O)N2CCc3ccccc3C2C2CCCCC2)cc1 (stereo unspecified)
pIC50 [1]: 5.64
inhibition at 10 µM (hERG (KCNH2)): 71.7%

SMILES: COc1cc(CN2CCN(CCCCCC(c3ccc(F)cc3)c3ccc(F)cc3)CC2)cc(OC)c1OC
pIC50 [1]: 5.96
pIC50 [2]: 5.47
solubility [3]: > 100 µM
solubility [4]: < 1 µM

SMILES: O=C(CNCC1(O)CCCCC1)N1CCc2ccccc2[C@H]1C1CCCCC1
pIC50 [1]: 5.82

SMILES: O=C(CNCC1CCCCC1)N1CCc2ccccc2C1C1CCCCC1 (stereo unspecified)
pIC50 [1]: 5.89
pIC50 [2]: 4.59
Ratio IC50 (IMR-32): 20

SMILES: O=C(CNCCc1c(Cl)cccc1Cl)N1CCc2ccccc2C1C1CCCCC1 (stereo unspecified)
pIC50 [1]: 5.62

SMILES: O=C(CNCC1(O)CCCCCC1)N1CCc2ccccc2C1C1CCCCC1 (stereo unspecified)
pIC50 [1]: 5.59
pIC50 [2]: 4.30
Ratio IC50 (IMR-32): 19.6

SMILES: O=C(CNCCc1ccccc1)N1CCc2ccccc2C1C1CCCCC1 (stereo unspecified)
pIC50 [1]: 5.89
inhibition at 10 µM (hERG (KCNH2)): 57.8%
